Laboratory results published in patent US5441987A, “Antifungal agent” (Merck & Co., Inc., priority 1994, dated 1995).
In brackets after ≈: the same amount, converted by molar mass.

Columns and labels:
[1] = system: C. parapsilosis (MY 1010); assay: broth microdilution MIC/MFC assay; conditions: Lodderomyces parapsilosis; for MIC: 24 h, read-out: Minimum Inhibitory Concentration (MIC); for MFC: read-out: Minimum Fungicidal Concentration (MFC)
Procedure: (§1) In the microbroth dilution assay, microorganisms were selected by streaking a yeast culture on Sabouraud dextrose agar (SDA) incubating for 24-48 hours at 35°-37° C., thereafter selected 3 to 5 characteristic colonies and transferring to a fresh plate and incubating under similar conditions. From the regrowth, 3 to 5 colonies were selected and suspended in 10 milliliters of YM broth (Difco) and incubated for 4 hours at 35°-37° C. shaking at 225 rpm. The 4 hour broth cultures were adjusted optically to 86% transmission resulting in a concentration of 1-5 X 10^6 cfu/ml which was further diluted 1:100 in YNBD (yeast nitrogen base with 1% dextrose) to obtain a concentration of 1-5 X 10^4 cfu/ml for use as inocula.
(§2) The compounds in column 1 were then serially diluted two-fold to yield concentrations from 128 μg/ml to 0.6 μg/ml.
(§3) The plates containing the diluted compounds were then inoculated with 75 μl/well of the appropriate microorganism and incubated for 48 hours at 35°-37° C. with MIC (minimum inhibitory concentration) determinations carried out after 24 hours of incubation. Growth and sterility controls for each organism and sterility checks for the compounds also were carried out.
(§4) After recording MICs at 24 hours, the microtiter plates were shaken gently to resuspend the cells. A 1.5 μl sample was transferred from each well of the 96-well microtiter plate to a single reservoir inoculum plate containing SDA. The inoculated SDA and corresponding microtiter plates were incubated for 24 hours at 35°-37° C. For Cryptococus neoformans, SDA plates were inoculated at 48 hours after recording MICs and incubated 48 hours before reading the MFC. MFC is the lowest concentration of compound at which either no growth or growth of ≤4 colonies occur.

[2] = system: Saccharomyces cerevisiae (MY 1976); assay: broth microdilution MIC/MFC assay; conditions: for MIC: 24 h, read-out: Minimum Inhibitory Concentration (MIC)
Procedure: as §1, §2, §3, §4

[3] = system: Aspergillus fumigatus (MF 4839); assay: broth microdilution MIC assay; conditions: read-out: Minimum Inhibitory Concentration (MIC)
Procedure: as §1, §2, §3

A. fumigatus (5668) = assay: broth microdilution MIC assay; conditions: Aspergillus fumigatus, read-out: Minimum Inhibitory Concentration (MIC)
Procedure: as §1, §2, §3

[4] = system: C. guillermondii (MY 1019); assay: broth microdilution MIC/MFC assay; conditions: Meyerozyma guilliermondii; for MIC: 24 h, read-out: Minimum Inhibitory Concentration (MIC); for MFC: read-out: Minimum Fungicidal Concentration (MFC)
Procedure: as §1, §2, §3, §4

C. neoformans (MY 2062) = assay: broth microdilution MIC/MFC assay; conditions: Cryptococcus neoformans; for MFC: 48 h, read-out: Minimum Fungicidal Concentration (MFC); for MIC: read-out: Minimum Inhibitory Concentration (MIC)
Procedure: as §1, §2, §3, §4

C. albicans (MY 1750) = assay: broth microdilution MIC/MFC assay; conditions: Candida albicans; for MFC: read-out: Minimum Fungicidal Concentration (MFC)
Procedure: as §1, §2, §3, §4

[5] = system: Cryptococcus neoformans (MY 1051); assay: broth microdilution MIC/MFC assay; conditions: for MFC: 48 h, read-out: Minimum Fungicidal Concentration (MFC); for MIC: read-out: Minimum Inhibitory Concentration (MIC)
Procedure: as §1, §2, §3, §4

A. fumigatus (5669) = assay: broth microdilution MIC assay; conditions: Aspergillus fumigatus, read-out: Minimum Inhibitory Concentration (MIC)
Procedure: as §1, §2, §3

C. neoformans (MY 2061) = assay: broth microdilution MIC/MFC assay; conditions: Cryptococcus neoformans; for MFC: 48 h, read-out: Minimum Fungicidal Concentration (MFC); for MIC: read-out: Minimum Inhibitory Concentration (MIC)
Procedure: as §1, §2, §3, §4

C. neoformans (MY 1146) = assay: broth microdilution MIC/MFC assay; conditions: Cryptococcus neoformans; for MFC: 48 h, read-out: Minimum Fungicidal Concentration (MFC); for MIC: read-out: Minimum Inhibitory Concentration (MIC)
Procedure: as §1, §2, §3, §4

[6] = system: Candids albicans (MY 1028); assay: broth microdilution MIC/MFC assay; conditions: Candida albicans; for MFC: read-out: Minimum Fungicidal Concentration (MFC)
Procedure: as §1, §2, §3, §4

C. tropicalis (MY 1012) = assay: broth microdilution MIC/MFC assay; conditions: Candida tropicalis; for MIC: 24 h, read-out: Minimum Inhibitory Concentration (MIC); for MFC: read-out: Minimum Fungicidal Concentration (MFC)
Procedure: as §1, §2, §3, §4

[7] = system: C. pseudotropicalis (MY 2099); assay: broth microdilution MIC/MFC assay; conditions: Kluyveromyces marxianus; for MIC: 24 h, read-out: Minimum Inhibitory Concentration (MIC); for MFC: read-out: Minimum Fungicidal Concentration (MFC)
Procedure: as §1, §2, §3, §4

Phytophthora infestans = format: in vivo; conditions: 50 ppm, tomato, evaluated after four days
Botrytis cinerea = assay: in vivo protectant assay, grey mold on pepper; conditions: 50 ppm, evaluated after four days
Puccinia recondita = assay: in vivo protectant assay, wheat leaf rust on wheat; conditions: 50 ppm, evaluated after 10-14 days
Alternaria solani = assay: in vivo protectant assay, early blight on tomato; conditions: 50 ppm, evaluated after four days
Plasmopara viticola = assay: in vivo protectant assay, downy mildew on grape; conditions: 50 ppm, evaluated after 12 days
filamentous fungi = assay: filter paper disc inhibition zone assay, filamentous fungi; format: cell-based; conditions: 25 μl/disc, 28° C. or 37° C., 24 hours
Procedure: Compound I is also useful for inhibiting the growth of filamentous fungi. Such use may be illustrated in the following tests with Aspergillus fumigatus, Aspergillus niger, Aspergillus flavus, Fusarium oxysporum, Rhizomicor miehei, Ustilago zeae and the like. Inocula for filamentous fungi are prepared by scraping the surface of stock plates maintained on potato dextrose agar with a moistened sterile dacron swab. The spores and mycelia are then suspended in 10 milliliters of sterile potato dextrose broth and adjusted to 70 percent transmission at 660 nm. The samples to be tested for production of antifungal agent are applied to 6.2 mm. filter paper discs (25 microliter/disc) and air dried at 24° C. When the sample to be tested is crude broth, it may be centrifuged prior to application. The discs bearing the material to be tested are then applied employing sterile conditions to the seeded assay plates and the samples […] 25 percent sterile aqueous dimethylsulfoxide (25 μl/disc). The assay plates are then incubated at either 28° C. or 37° C. for 24 hours. Following incubation, the inhibition zones are measured. Growths are also noted as to appearance.

[8] = 24 h, read-out: Minimum Inhibitory Concentration (MIC)

Compound	MIC [1]	MFC [1]	MIC [2]	MIC [3]	MIC (A. fumigatus (5668))	MIC [4]	MFC [4]	MFC (C. neoformans (MY 2062))	MIC (C. neoformans (MY 2062))	MFC (C. albicans (MY 1750))	MFC [5]	MIC [5]	MIC (A. fumigatus (5669))	MFC (C. neoformans (MY 2061))	MIC (C. neoformans (MY 2061))	MFC (C. neoformans (MY 1146))	MIC (C. neoformans (MY 1146))	MFC [6]	MIC (C. tropicalis (MY 1012))	MFC (C. tropicalis (MY 1012))	also measured
C[C@@H]1[C@H](O)[C@@H](C)/C=C/C=C/C=C/C=C/C=C/C=C/C=C/[C@H](O[C@@H]2O[C@H](C)[C@@H](O)[C@H](N)[C@@H]2O)C[C@@H]2O[C@](O)(C[C@@H](O)C[C@@H](O)[C@H](O)CC[C@@H](O)C[C@@H](O)CC(=O)O[C@H]1C)C[C@H](O)[C@H]2C(=O)O [Amphotericin B, reference compound]	2 µg/mL (≈ 2.16 µM)	2 µg/mL (≈ 2.16 µM)	1 µg/mL (≈ 1.08 µM)	4 µg/mL (≈ 4.33 µM)	4 µg/mL (≈ 4.33 µM)	2 µg/mL (≈ 2.16 µM)	4 µg/mL (≈ 4.33 µM)	2 µg/mL (≈ 2.16 µM)	2 µg/mL (≈ 2.16 µM)	2 µg/mL (≈ 2.16 µM)	4 µg/mL (≈ 4.33 µM)	2 µg/mL (≈ 2.16 µM)	4 µg/mL (≈ 4.33 µM)	2 µg/mL (≈ 2.16 µM)	2 µg/mL (≈ 2.16 µM)	2 µg/mL (≈ 2.16 µM)	2 µg/mL (≈ 2.16 µM)	2 µg/mL (≈ 2.16 µM)	64 µg/mL (≈ 69.3 µM)	32 µg/mL (≈ 34.6 µM)	MIC [7]: 4 µg/mL (≈ 4.33 µM); MFC [7]: 4 µg/mL (≈ 4.33 µM)
CCCCCCC(C)C1=C(O)C(=O)C2C(O)C(C)CC(O)C2C1(C)C(=O)CCO (centres unmarked) [Compound I]	64 µg/mL (≈ 156 µM)	64 µg/mL (≈ 156 µM)	16 µg/mL (≈ 39 µM)	32 µg/mL (≈ 77.9 µM)	32 µg/mL (≈ 77.9 µM)	16 µg/mL (≈ 39 µM)	16 µg/mL (≈ 39 µM)	32 µg/mL (≈ 77.9 µM)	16 µg/mL (≈ 39 µM)	32 µg/mL (≈ 77.9 µM)	16 µg/mL (≈ 39 µM)	8 µg/mL (≈ 19.5 µM)	32 µg/mL (≈ 77.9 µM)	16 µg/mL (≈ 39 µM)	16 µg/mL (≈ 39 µM)	32 µg/mL (≈ 77.9 µM)	32 µg/mL (≈ 77.9 µM)	32 µg/mL (≈ 77.9 µM)	32 µg/mL (≈ 77.9 µM)	32 µg/mL (≈ 77.9 µM)	MFC ([2]; read-out: Minimum Fungicidal Concentration (MFC)): 16 µg/mL (≈ 39 µM); control of Phytophthora infestans (Phytophthora infestans): up to 90%; MIC (C. albicans (MY 1750); [8]): 64 µg/mL (≈ 156 µM); control of Botrytis cinerea (Botrytis cinerea): Moderate control; control of Puccinia recondita (Puccinia recondita): Moderate control; MIC [6, 8]: 32 µg/mL (≈ 77.9 µM); control of Alternaria solania (Alternaria solani): Moderate control; control of Plasmopara viticola (Plasmopara viticola): ≤ 85%; growth inhibition of fungal organisms (inhibition zones) (filamentous fungi): effectively inhibit growth; MIC [7]: 16 µg/mL (≈ 39 µM); MFC [7]: 32 µg/mL (≈ 77.9 µM)
